One may read the Tmax as the time at which the peak concentration occurs.

For data set [1] the following is noted: cited from earlier work.
For data set [2] the following is noted: cited from earlier work. This is another data set of the same source.
Another data set is described as follows: clinical. The note with it: human, in vivo, po, 400 mg.

Molecules are shown by their SMILES.

On to `CC(C)Cc1ccc(C(C)C(=O)O)cc1` (racemic) [Ibuprofen, (R,S)-2-(4-isobutylphenyl) propionic acid], for which the “onset of therapeutic effects after oral administration” value in data set [1] is “between 45 minutes and one hour”. In addition, the solubility in water result in data set [2] is recorded as “practically insoluble”.
On to `CC(C)Cc1ccc(C(C)C(=O)O)cc1` (racemic) [ibuprofen sodium dihydrate, (R,S)-2-(4-isobutylphenyl) propionate sodium], for which, in “clinical”, the Tmax is roughly 35 min.

These data come from patent US20180078516A1 (InnovaZone Labs LLC, priority 2016, published 2018).
